US11325937B2, “Glycoside compound and preparation method therefor, composition, application, and intermediate” (SHANGHAI HUTCHISON PHARMACEUTICALS LIMITED, priority 2018, dated 2022)

How the values were obtained:
[1] = system: rats with permanent ligation of bilateral common carotid arteries (2VO); test: Chronic cerebral ischemia model in rats with permanent ligation of bilateral common carotid arteries (2VO); type: in vivo
Description: (§1) After obtaining the active molecules that can promote the expression of VEGF-A mRNA in the animal model of inflammatory angiogenesis, a rat model of cerebral infarction was used for further verification. Following the method as described in Longa, E. Z., Longa, E. Z., Weinstein, P. R., Carlson, S. & Commin, R. Reversible middle cerebral artery occlusion without craniectomy in rats. [J]. Stroke, 1989. 1: 84-91, an acute cerebral infarction model was established in rats with middle cerebral artery occlusion (MCAO); and following the method as described in C. dela Torre, T. Fortin, G. A. S. Park, K. S. Butler, P. Kozlowski, B. A. Pappas, H. de Socarraz, J. K. Saunders and M. T. Richard. [J]. Brain Research, 1992. 582:186-195, a chronic cerebral ischemia model was established in rats with permanent ligation of bilateral common carotid arteries (2VO). The inhibition on cerebral infarction and neuroprotection for brain injury of the active molecules screened in Effect Example 2 were verified.
In the later period of the present invention, a chronic cerebral ischemia model was established in rats with permanent ligation of bilateral common carotid arteries (2VO). TG-028 (5 mg/kg) was administered to 5 rats in each group daily by intraperitoneal injection for 3 weeks. The effects of TG-028 and the control drug Edaravone (40 mg/kg) in the rat model of chronic cerebral ischemia were observed.
3 weeks after the establishment of the rat model of 2VO chronic cerebral ischemia, the Morris water maze experiment was performed on the test rats to determine the effects of drugs on animal learning and memory. The test rats were subjected to ambient positioning and memory training for 5 days. On Day 5 of the training, a positioning navigation experiment was carried out, and the duration for each group of rats from the time of entering the water from different water entry points facing the pool wall to the time of finding the platform, that is, the escape incubation period, was recorded. On Day 6, the platform was removed and a space exploration experiment was carried out. The swimming time of the rats in the target quadrant, the dwell time in the target quadrant, the distance in the target quadrant, and the number of passes through the platform were recorded in 120 s from the time of entering water from a quadrant opposing the target quadrant. The results of the water maze positioning and navigation experiment are shown in FIG. 8 (where Sham is a sham operation group).
After permanent ligation of the bilateral common carotid arteries, a 5-day positioning training was carried out, and […] Morris water maze space exploration experiment was performed after the training.

[2] = system: rats with middle cerebral artery occlusion (MCAO); test: Acute cerebral infarction model in rats with middle cerebral artery occlusion (MCAO); type: in vivo, male SD rats; conditions: Rattus norvegicus, ip, 72 h, MCAO, intraperitoneal injection, TTC staining after 3 days, read-out: ED50 for infarction inhibition rate (%)
Description: as §1
The control drugs were: Edaravone (purchased from Zhejiang Shengtong Biotechnology Co., Ltd.), Clopidogrel bisulfate (purchased from Wuhan Yuancheng Gongchuang Technology Co., Ltd.), and Salvianolate (purchased from Henan Provincial People's Hospital). Clopidogrel bisulfate is a platelet aggregation inhibitor, and Edaravone is a brain protectant (free radical scavenger). The MCAO model of rats was made by the thread occlusion method. The rats used in this effect example were male SD rats weighing 280-320 grams, purchased from Shanghai SLAC Laboratory Animal Co., Ltd. Five SD (Sprague Dawley) rats in each group were administered by intraperitoneal injection, 2 h before surgery, and every 24 h after modeling.
Three days later, the brain was taken, and the rat brain was stained with TTC (2,3,5-triphenyltetrazolium chloride, to detect the cell viability) and then photographed. Infarction rate (%)=(Non-infarction area of right brain section−non-infarction area of left brain section)/total area of brain section*100%. According to t tests, *P<0.05, **P<0.01, ***P<0.001 compared with the model group (MCAO). Infarction inhibition rate (%) at different doses=(infarction rate of model group-infarction rate of treatment group)/infarction rate of model group*100%. The infarction inhibition rate at different doses was plotted, and the ED50 of the drug was calculated.
Moreover, the body weight of the rats was recorded. The rate of body weight change was calculated according to a formula: Rate of body weight change (%)=(final weight-initial weight)/[…].
Three days after the acute cerebral infarction model was established in rats with MCAO, the test rats were scored for neurological function according to the Longa nerve scoring standard.
Three days after the acute cerebral infarction model of MCAO was established in rats, the intact brain tissue was taken out, olfactory bulb and the brain tissue that is 4 mm in front of the frontal pole was removed, and the immediately adjacent brain tissue of 2 mm thick was taken for water content measurement in the brain. The water content in brain tissue is calculated by the formula: (WW−DW)/WW×100%, where WW is the wet weight and DW is the dry weight. Three days after the acute cerebral infarction model of MCAO was established in rats, the brain tissue was stained with Evans Blue (EB, a commonly used azo dye preparation) to evaluate the permeability across the blood-brain barrier (BBB), so as to evaluate the integrity of blood-brain barrier. Both experiments were tested with the optimal dose of each drug previously determined: TG-028 (5 mg/Kg), Salvianolate (20 mg/Kg), Clopidogrel bisulfate (40 mg/Kg), Edaravone (40 mg/Kg).

VEGF-A mRNA = test: Sponge implanted animal model of inflammatory angiogenesis: VEGF-A mRNA expression; type: in vivo, male C57/BL6 mice; conditions: for activity in promoting VEGF-A mRNA expression compared with Salvianolate (in words): positive control Salvianolate 60 mg/kg/d, sponge implanted mice, 2 weeks
Description: The target pro-angiogenic compounds TG-052, TG-053, TG-054, TG-028, and TG-055 obtained in Effect Example 1 that perform well at the cellular level were further screened for the active molecules that promote VEGF-A mRNA expression in the “sponge implanted animal model” of inflammatory angiogenesis. […] This model can well reflect the expression of VEGF-A mRNA in macrophages recruited around inflammation.
A sponge implanted mouse model was established following the method as described in Zhang J, Modi Y, and Yarovinsky T, et al. Macrophage β2 integrin-mediated, HuR-dependent stabilization of angiogenic factor-encoding mRNAs in inflammatory angiogenesis. [J]. American Journal of Pathology, 2012. 180(4): 1751-1760. The mice used in the present invention was male C57/BL6 mice aged 6-8 weeks and weighing 20-25 g, purchased from Shanghai SLAC Laboratory Animal Co., Ltd, Production License No: SCXK (Shanghai) 2013-0016. The compound screened in Effect Example 1 was weighed according to the amount intended to be used in two weeks, and then mixed with a gel matrix and a solvent to prepare a sustained-release gel of the compound (see Patent Application No.: CN201610168493.9 for the details of the preparation method of the sustained-release gel and the model establishment and detection methods). The specific steps were as follows. A certain amount of the compound obtained in Effect Example 1 was weighed into a 1.5 mL EP tube, and then a certain amount of poly-L-lactic acid (PLLA) with a weight average molecular weight of less than 10,000 was weighed and mixed with the compound (at a weight ratio of the compound to PLLA of 0.5:1 to 2:1). Finally a certain amount of DMSO (less than 100 microliters) was added, spun, mixed well, and then sealed with a sealing film. After continuous ultrasonication at 200 W and 25° C. for 5 h, a sustained-release gel of the compound was obtained, which was stored at 4° C. for later use.
The prepared sustained-release gel can release the drug completely within 2 weeks. The sustained-release gel and sponge were both subcutaneously implanted in the mice at the back. After 2 weeks, the sponge was taken out, and the residual tissue and fur were removed. The sponge was transferred to a cell culture plate containing 10 mL of DMEM medium containing collagenase (Collagenase:DMEM=10 mg/10 mL), cut, and incubated for 1 h in a cell incubator. Then the culture medium containing sponge debris was filtered, and the resulting filtrate was centrifuged. The supernatant was discarded, and 500 μL of Trizol reagent was added to the pellet, and mixed uniformly by blowing. Then the liquid was transferred to a 1.5 mL EP tube, and stored at −80° C. RNA was extracted according to a conventional method, and the RNA concentration was determined using a microvolume nucleic acid and protein analyzer (Nanodrop2000c). The required volume V of RNA was calculated according to the RNA concentration, and the RNA reverse transcription reaction system was prepared according to Table 1. Then RNA reverse transcription (cDNA synthesis) was carried out according to the conditions described in Table 2. The resulting cDNA was used to prepare a fluorescence quantitative qPCR reaction solution according to Table 3. The fluorescence quantitative qPCR reaction conditions were set according to Table 4, and the fluorescence quantitative PCR reaction was performed using cDNA from the reverse transcription reaction as a template. The relative expression level 2^−ΔΔCt of the target gene was calculated from the Ct value of each sample with the blank group as a control and β-Actin as an internal reference. The expression level of VEGF-A mRNA in the cells extracted from the sponge was observed after 2 weeks. […]

[3] = system: VEGF-A mRNA expression in macrophages (RAW264.7); test: In vitro macrophage experiment: activity of compounds to promote VEGF-A mRNA expression (RT-qPCR); type: cell-based; conditions: Mus musculus, RAW264.7 macrophages, 3 h, relative expression, no drug = 1, read-out: Expression level of VEGF-A mRNA; for fold induction at 500 µM: 0.5 mM; for fold induction at 1000 µM: 1 mM; for fold induction at 2000 µM: 2 mM; for fold induction at 3000 µM: 3 mM; for fold induction at 4000 µM: 4 mM
How it was run: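 RAW264.7 macrophages were exposed to test compounds at various concentrations for 3 h at 37° C. VEGF-A mRNA was measured by SYBR Green RT-qPCR, normalized to β-Actin, and expressed as 2^−ΔΔCt relative to untreated cells (=1). Activity is the maximal fold induction, with ≥4 as hit criterion.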

Structure (SMILES)	HE staining and Nissl staining of brain sections, hippocampal CA3 neurons (in words) ([1]; 3 weeks after chronic cerebral ischemia, compared with 2VO+NaCl, FIG. 10)	Morris water maze positioning and navigation: escape incubation period and total distance (in words) ([1]; TG-028 5 mg/kg, Edaravone 40 mg/kg, 3 weeks of administration, FIG. 8)	Morris water maze space exploration: number of passes through the platform compared with 2VO+NaCl group ([1]; TG-028 5 mg/kg, Edaravone 40 mg/kg, 3 weeks, FIG. 9)	change in body weight compared with sham operation group (in words) ([1]; TG-028 5 mg/kg, Edaravone 40 mg/kg, i.p. daily, after 1 week, FIG. 7)	ED50 [2] [mg/kg]	activity in promoting VEGF-A mRNA expression compared with Salvianolate (in words) (VEGF-A mRNA)	fold induction at 500 µM [3]	fold induction at 1000 µM [3]	fold induction at 2000 µM [3]	fold induction at 3000 µM [3]	fold induction at 4000 µM [3]	expression of VEGF-A mRNA (in words) (VEGF-A mRNA; various doses, alone, FIG. 19)	fold induction at 100 µM ([3]; 0.1 mM)
CC1=NN(c2ccccc2)C(=O)C1 [Edaravone, reference compound]	cell morphology in the 2VO+Edaravone group is also improved	different from those of the 2VO+NaCl group	no significant difference	no significant weight increase compared with the sham operation group	25.7	–	–	–	–	–	–	–	–
COc1ccc(CCO[C@@H]2O[C@H](CO)[C@@H](O)[C@H](O)[C@H]2O)cc1 [TG-053]	–	–	–	–	–	slightly lower activity in promoting the VEGF-A mRNA expression	11.2	13.4	6.82	1.32	1.8	–	–
COc1ccc(CCCO[C@@H]2O[C@H](CO)[C@@H](O)[C@H](O)[C@H]2O)cc1 [TG-054]	–	–	–	–	–	slightly lower activity in promoting the VEGF-A mRNA expression	3.63	12.4	6.5	1.21	2.01	–	–
OC[C@H]1O[C@@H](OCCc2ccc(O)cc2)[C@H](O)[C@@H](O)[C@@H]1O [TG-056, salidroside, reference compound]	–	–	–	–	–	–	1.74	2.24	6.7	2.31	–	very low expression of VEGF-A mRNA	0.72
